Read-outs that look alike come from different tables or passages of the source. Where a SMILES comes first, the peptide text is derived from it. Side-chain parts run from the residue outwards. [ ]: non-standard residue; d: D form. The star is where a group is joined. αMePhe(2-F) = C[C@](N)(Cc1ccccc1F)C(=O)O; C14 diacid = O=C(O)CCCCCCCCCCCCC(=O)*; αMeY = C[C@](N)(Cc1ccc(O)cc1)C(=O)O; αMeL = CC(C)C[C@](C)(N)C(=O)O; Orn = NCCC[C@H](N)C(=O)O; AEEA = NCCOCCOCC(=O)O; Aib = CC(C)(N)C(=O)O
How the values were obtained:
Format in all cases: cell-based
hGIPR = molecular target: T1, hGIPR (Homo sapiens, UniProt P48546); assay: Functional cAMP formation (HTRF) in HEK-293 clonal cells expressing hGIPR, 0.1% bovine casein, without or with 1.0% human serum albumin; details: 37° C.; for Emax: percent of maximal response to GIP(1-42)NH2, read-out: hGIPR Emax, % ± SEM; for EC50: cAMP, 0.1% bovine casein (no human serum albumin), geometric mean, read-out: hGIPR EC50, nM (SEM, n)
T1 construct: expressed in transfected cells
T1 sequence (P48546 22-466): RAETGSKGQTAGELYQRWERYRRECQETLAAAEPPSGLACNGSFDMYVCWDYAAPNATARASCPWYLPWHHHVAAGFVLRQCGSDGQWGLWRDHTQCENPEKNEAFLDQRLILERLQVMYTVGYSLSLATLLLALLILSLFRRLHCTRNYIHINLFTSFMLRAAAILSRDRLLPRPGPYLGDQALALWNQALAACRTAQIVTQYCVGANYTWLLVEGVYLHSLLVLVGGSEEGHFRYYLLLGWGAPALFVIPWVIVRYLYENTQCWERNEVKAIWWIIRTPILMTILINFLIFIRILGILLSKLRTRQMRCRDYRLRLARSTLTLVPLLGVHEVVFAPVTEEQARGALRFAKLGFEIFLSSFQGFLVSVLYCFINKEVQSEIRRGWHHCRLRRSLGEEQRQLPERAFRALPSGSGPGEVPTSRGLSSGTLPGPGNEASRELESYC
Outline: (§1)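 Cells were stimulated with peptide for 30 min at 37° C, then intracellular cAMP was measured by competitive HTRF (665/620 nm ratio) and converted to nM using a cAMP standard curve. Relative EC50 and Emax came from four-parameter logistic fits of percent maximal response against peptide concentration.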

hGLP-1R = hGLP-1R (Homo sapiens, UniProt P43220); assay: Functional cAMP formation (HTRF) in HEK-293 clonal cells expressing hGLP-1R, 0.1% bovine casein, without or with 1.0% human serum albumin; design: expressed in transfected cells; details: 37° C.; for EC50: geometric mean, read-out: hGLP-1R EC50, nM (SEM, n); for Emax: percent of maximal response to GLP-1(7-36)NH2, read-out: hGLP-1R Emax, % ± SEM
Outline: as §1

hGCGR = molecular target: T2, hGCGR (Homo sapiens, UniProt P47871); assay: Functional cAMP formation (HTRF) in HEK-293 clonal cells expressing hGCGR, 0.1% bovine casein, without or with 1.0% human serum albumin; details: 37° C., geometric mean, read-out: hGCGR EC50, nM (SEM, n)
T2 construct: expressed in transfected cells
Outline: as §1

[1] = HEK293, 0.1% bovine casein and 1.0% human serum albumin
[2] = HEK293, cAMP, 0.1% bovine casein, arithmetic mean
[3] = cAMP, 0.1% bovine casein (no human serum albumin)
[4] = 0.1% bovine casein and 1.0% human serum albumin

hGLP-1R, sequence (P43220 24-463): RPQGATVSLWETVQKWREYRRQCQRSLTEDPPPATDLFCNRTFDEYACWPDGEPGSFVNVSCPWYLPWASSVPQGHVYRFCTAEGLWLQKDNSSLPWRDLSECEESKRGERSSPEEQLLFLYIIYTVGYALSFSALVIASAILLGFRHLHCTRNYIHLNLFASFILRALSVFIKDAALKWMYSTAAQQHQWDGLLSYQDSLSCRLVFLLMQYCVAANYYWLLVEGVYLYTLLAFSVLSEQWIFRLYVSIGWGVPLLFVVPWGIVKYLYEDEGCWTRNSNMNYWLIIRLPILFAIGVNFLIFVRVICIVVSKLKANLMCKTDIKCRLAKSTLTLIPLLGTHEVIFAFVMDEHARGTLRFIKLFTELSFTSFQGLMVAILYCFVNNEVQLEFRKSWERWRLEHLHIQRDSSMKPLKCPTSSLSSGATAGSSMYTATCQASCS
T2 sequence (P47871 26-477): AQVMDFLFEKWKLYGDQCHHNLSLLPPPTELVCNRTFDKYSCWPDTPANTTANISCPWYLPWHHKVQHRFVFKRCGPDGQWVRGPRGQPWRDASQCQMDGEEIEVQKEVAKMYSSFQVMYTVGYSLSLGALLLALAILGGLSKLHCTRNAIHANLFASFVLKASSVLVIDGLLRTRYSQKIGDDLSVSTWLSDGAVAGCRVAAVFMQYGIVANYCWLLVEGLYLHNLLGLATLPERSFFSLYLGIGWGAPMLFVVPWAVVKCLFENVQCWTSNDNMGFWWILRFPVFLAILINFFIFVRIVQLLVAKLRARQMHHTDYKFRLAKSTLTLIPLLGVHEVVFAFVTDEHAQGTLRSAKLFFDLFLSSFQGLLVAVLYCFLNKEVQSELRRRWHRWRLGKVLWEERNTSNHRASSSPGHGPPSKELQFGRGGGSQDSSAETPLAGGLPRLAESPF

Compound: CC[C@H](C)[C@H](NC(=O)[C@H](CC(C)C)NC(=O)[C@](C)(Cc1ccc(O)cc1)NC(=O)[C@@H](CCC(=O)O)NC(=O)[C@@H](NC(=O)[C@H](Cc1ccccc1)NC(=O)[C@H](CCCCNC(=O)COCCOCCNC(=O)COCCOCCNC(=O)CCCCCCCCCCCCC(=O)O)NC(=O)C(C)(C)NC(=O)[C@H](CCC(N)=O)NC(=O)[C@H](C)NC(=O)[C@H](CCCCNC(=O)COCCOCCNC(=O)COCCOCCNC(=O)CCCCCCCCCCCCC(=O)O)NC(=O)[C@H](CCCN)NC(=O)[C@H](CC(=O)O)NC(=O)[C@H](CC(C)C)NC(=O)[C@](C)(CC(C)C)NC(=O)[C@@H](NC(=O)[C@H](CO)NC(=O)[C@H](Cc1ccc(OC)cc1)NC(=O)[C@H](CC(=O)O)NC(=O)[C@H](CO)NC(=O)[C@@H](NC(=O)[C@](C)(Cc1ccccc1F)NC(=O)[C@@H](NC(=O)CNC(=O)[C@H](CCC(=O)O)NC(=O)C(C)(C)NC(=O)[C@@H](N)Cc1ccc(O)cc1)[C@@H](C)O)[C@@H](C)O)[C@@H](C)CC)[C@@H](C)CC)C(=O)N[C@@H](CCC(=O)O)C(=O)NCC(=O)NCC(=O)N1CCC[C@H]1C(=O)N[C@@H](CO)C(=O)N[C@@H](CO)C(=O)NCC(=O)N[C@@H](C)C(=O)N1CCC[C@H]1C(=O)N1CCC[C@H]1C(=O)N1CCC[C@H]1C(=O)N[C@@H](CO)C(N)=O [Example 265] (H-Y[Aib]EGT[αMePhe(2-F)]TSDY(Me)SI[αMeL]LD[Orn]K([AEEA-AEEA-C14 diacid])AQ[Aib]K([AEEA-AEEA-C14 diacid])FI[dE][αMeY]LIEGGPSSGAPPPS-NH2)
- Emax (hGIPR; [1]): 96%
- Emax (hGIPR; [2]): 100%
- EC50 (hGIPR): 0.0145 nM
- EC50 (hGLP-1R; [3]): 0.262 nM
- EC50 (hGCGR; [4]): > 9950 nM
- EC50 (hGCGR; [3]): > 9950 nM

Compound: CC[C@H](C)[C@H](NC(=O)[C@H](CC(C)C)NC(=O)[C@](C)(Cc1ccc(O)cc1)NC(=O)[C@@H](CCC(=O)O)NC(=O)[C@@H](NC(=O)[C@H](Cc1ccccc1)NC(=O)[C@H](CCC(=O)O)NC(=O)C(C)(C)NC(=O)[C@H](CCC(N)=O)NC(=O)[C@H](C)NC(=O)[C@H](CCCCNC(=O)COCCOCCNC(=O)COCCOCCNC(=O)CCCCCCCCCCCCC(=O)O)NC(=O)[C@H](CCCN)NC(=O)[C@H](CC(=O)O)NC(=O)[C@H](CC(C)C)NC(=O)[C@](C)(CC(C)C)NC(=O)[C@@H](NC(=O)[C@H](CO)NC(=O)[C@H](Cc1ccc(OC)cc1)NC(=O)[C@H](CC(=O)O)NC(=O)[C@H](CO)NC(=O)[C@@H](NC(=O)[C@](C)(Cc1ccccc1F)NC(=O)[C@@H](NC(=O)CNC(=O)[C@H](CCC(=O)O)NC(=O)C(C)(C)NC(=O)[C@@H](N)Cc1ccc(O)cc1)[C@@H](C)O)[C@@H](C)O)[C@@H](C)CC)[C@@H](C)CC)C(=O)N[C@@H](CCCCNC(=O)COCCOCCNC(=O)COCCOCCNC(=O)CCCCCCCCCCCCC(=O)O)C(=O)NCC(=O)NCC(=O)N1CCC[C@H]1C(=O)N[C@@H](CO)C(=O)N[C@@H](CO)C(=O)NCC(=O)N[C@@H](C)C(=O)N1CCC[C@H]1C(=O)N1CCC[C@H]1C(=O)N1CCC[C@H]1C(=O)N[C@@H](CO)C(N)=O [Example 266] (H-Y[Aib]EGT[αMePhe(2-F)]TSDY(Me)SI[αMeL]LD[Orn]K([AEEA-AEEA-C14 diacid])AQ[Aib]EFI[dE][αMeY]LIK([AEEA-AEEA-C14 diacid])GGPSSGAPPPS-NH2)
- Emax (hGIPR; [1]): 82.7%
- Emax (hGIPR; [2]): 93.2%
- EC50 (hGIPR): 0.0136 nM
- EC50 (hGLP-1R; [4]): 5.83 nM
- Emax (hGLP-1R; [1]): 97.6%
- Emax (hGLP-1R; [2]): 90.5%
- EC50 (hGCGR; [4]): > 9950 nM
- EC50 (hGCGR; [3]): > 9950 nM

Compound: CC[C@H](C)[C@H](NC(=O)[C@H](CC(C)C)NC(=O)[C@](C)(Cc1ccc(O)cc1)NC(=O)[C@@H](CCC(=O)O)NC(=O)[C@@H](NC(=O)[C@H](Cc1ccccc1)NC(=O)[C@H](CCC(=O)O)NC(=O)C(C)(C)NC(=O)[C@H](CCC(N)=O)NC(=O)[C@H](C)NC(=O)[C@H](CCCCNC(=O)COCCOCCNC(=O)COCCOCCNC(=O)CCCCCCCCCCCCC(=O)O)NC(=O)[C@H](CCCN)NC(=O)[C@H](CC(=O)O)NC(=O)[C@H](CC(C)C)NC(=O)[C@](C)(CC(C)C)NC(=O)[C@@H](NC(=O)[C@H](CO)NC(=O)[C@H](Cc1ccc(OC)cc1)NC(=O)[C@H](CC(=O)O)NC(=O)[C@H](CO)NC(=O)[C@@H](NC(=O)[C@](C)(Cc1ccccc1F)NC(=O)[C@@H](NC(=O)CNC(=O)[C@H](CCC(=O)O)NC(=O)C(C)(C)NC(=O)[C@@H](N)Cc1ccc(O)cc1)[C@@H](C)O)[C@@H](C)O)[C@@H](C)CC)[C@@H](C)CC)C(=O)N[C@@H](CCC(=O)O)C(=O)NCC(=O)NCC(=O)N1CCC[C@H]1C(=O)N[C@@H](CO)C(=O)N[C@@H](CO)C(=O)NCC(=O)N[C@@H](C)C(=O)N1CCC[C@H]1C(=O)N1CCC[C@H]1C(=O)N1CCC[C@H]1C(=O)N[C@@H](CO)C(=O)N[C@@H](CCCCNC(=O)COCCOCCNC(=O)COCCOCCNC(=O)CCCCCCCCCCCCC(=O)O)C(N)=O [Example 267] (H-Y[Aib]EGT[αMePhe(2-F)]TSDY(Me)SI[αMeL]LD[Orn]K([AEEA-AEEA-C14 diacid])AQ[Aib]EFI[dE][αMeY]LIEGGPSSGAPPPSK([AEEA-AEEA-C14 diacid])-NH2)
- Emax (hGIPR; [1]): 88.1%
- EC50 (hGIPR): 0.0162 nM
- EC50 (hGLP-1R; [3]): 0.271 nM
- EC50 (hGCGR; [4]): > 9950 nM
- EC50 (hGCGR; [3]): > 9950 nM

— patent US20230265151A1, “GIP/GLP1 CO-AGONIST COMPOUNDS” (priority 2020, published 2023)
